The target of assay [1] is T1, Ubiquitin-conjugating enzyme E2 N (Homo sapiens, UniProt P61088).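 Further: Dose-response confirmation in a TR-FRET assay detecting UBC13-driven polyubiquitin chain formation, inhibition measured.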
T1 sequence (P61088 whole entry): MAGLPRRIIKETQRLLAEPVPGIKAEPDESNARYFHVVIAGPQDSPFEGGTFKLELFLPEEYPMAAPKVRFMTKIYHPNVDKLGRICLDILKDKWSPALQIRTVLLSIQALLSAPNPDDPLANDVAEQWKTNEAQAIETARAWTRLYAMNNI
The format is functional.

Assay [2] relates to Vero. In words: cells. To be noted: Chlorocebus sabaeus. In kind it is functional.
Assay [3] deals with T2, Leucine aminopeptidase (Plasmodium falciparum 3D7, UniProt Q8IL11).
T2 sequence (Q8IL11 whole entry): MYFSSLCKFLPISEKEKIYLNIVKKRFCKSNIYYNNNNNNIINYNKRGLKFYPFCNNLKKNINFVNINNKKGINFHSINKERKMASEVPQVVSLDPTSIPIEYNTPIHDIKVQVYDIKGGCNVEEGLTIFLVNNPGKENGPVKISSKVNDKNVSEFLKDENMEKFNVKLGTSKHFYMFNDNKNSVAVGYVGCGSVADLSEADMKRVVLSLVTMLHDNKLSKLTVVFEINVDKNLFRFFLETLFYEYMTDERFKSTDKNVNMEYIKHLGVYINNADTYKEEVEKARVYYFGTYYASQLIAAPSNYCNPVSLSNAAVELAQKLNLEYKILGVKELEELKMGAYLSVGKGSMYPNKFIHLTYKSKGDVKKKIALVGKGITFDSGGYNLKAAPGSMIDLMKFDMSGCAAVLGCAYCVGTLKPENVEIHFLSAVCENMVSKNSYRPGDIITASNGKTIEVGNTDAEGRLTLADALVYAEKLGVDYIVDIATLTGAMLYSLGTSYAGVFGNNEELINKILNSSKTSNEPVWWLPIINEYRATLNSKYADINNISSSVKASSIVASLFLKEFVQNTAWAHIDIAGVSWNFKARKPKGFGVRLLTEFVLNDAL
In words: P. falciparum M17LAP inhibitors, primary screen, biochemical, fluorogenic H-Leu-NHMec substrate, 1536-well (AID 1619). In kind it is functional.

Assay [4] deals with Large T antigen (Simian virus 40, UniProt P03070). The format is functional, Betapolyomavirus macacae.
A short description of assay [5]: microbe, parasite or virus in culture. The format is functional. To be noted: Mycobacterium tuberculosis.
In assay [6] the target is Induced myeloid leukemia cell differentiation protein Mcl-1 (Homo sapiens, UniProt Q07820). In kind it is functional.
Assay [7] deals with Vero. In words: cells. The format is functional, cell-based. To be noted: Chlorocebus sabaeus.
Assay [8] has as its target T3, Corticotropin-releasing factor receptor 2/Corticotropin-releasing factor-binding protein (Homo sapiens, UniProt P24387+Q13324).
T3 sequence (Q13324 whole entry): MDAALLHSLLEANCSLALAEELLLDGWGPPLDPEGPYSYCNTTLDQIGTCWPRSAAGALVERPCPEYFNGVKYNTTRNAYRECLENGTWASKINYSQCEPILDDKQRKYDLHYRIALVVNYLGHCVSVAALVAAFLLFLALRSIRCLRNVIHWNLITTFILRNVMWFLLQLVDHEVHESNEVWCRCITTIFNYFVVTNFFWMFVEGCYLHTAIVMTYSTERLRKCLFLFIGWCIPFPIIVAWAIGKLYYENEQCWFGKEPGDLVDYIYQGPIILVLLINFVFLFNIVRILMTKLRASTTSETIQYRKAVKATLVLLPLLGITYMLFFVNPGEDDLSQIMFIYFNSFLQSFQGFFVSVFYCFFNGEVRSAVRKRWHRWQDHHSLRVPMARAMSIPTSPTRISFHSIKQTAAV
T3 sequence (P24387 whole entry): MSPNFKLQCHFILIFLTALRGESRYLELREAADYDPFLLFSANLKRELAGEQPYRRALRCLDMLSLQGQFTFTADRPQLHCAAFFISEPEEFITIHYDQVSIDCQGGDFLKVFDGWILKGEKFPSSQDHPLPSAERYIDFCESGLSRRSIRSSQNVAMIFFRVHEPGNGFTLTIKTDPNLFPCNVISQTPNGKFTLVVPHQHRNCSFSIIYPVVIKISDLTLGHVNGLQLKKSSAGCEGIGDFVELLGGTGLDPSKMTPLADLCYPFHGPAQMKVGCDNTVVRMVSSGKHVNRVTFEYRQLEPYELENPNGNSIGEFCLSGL
Description: Dose Response confirmation of uHTS hits for small molecule antagonists of the CRF-binding protein and CRF-R2 receptor complex. In kind it is functional. To be noted: read-out: IC50_Mean.

For assay [9], the target named is T3, Corticotropin-releasing factor receptor 2/Corticotropin-releasing factor-binding protein. In words: activators of CRF receptor 2 with binding protein – uHTS hits, confirmation (AID 602473). The format is functional. To be noted: read-out: EC50_Mean.
The nature of assay [10]: inhibitors of firefly luciferase expression or activity, dose response, H4 neuroglioma cells, luminescence (AID 1990). The format is functional, cell-based.
Assay [11] is described as follows: Luminescence Cell-Based Dose Response HTS to Identify Inhibitors of 5'UTR Stem-Loop Driven Prion Protein mRNA Translation in H4 Neuroglioblastoma Cells. [Related pubchem assays: 1827 (Project Summary), 1813 (Primary HTS)]. In kind it is functional.
A short description of assay [12]: inhibitors of SNCA 5'UTR-driven reporter translation, confirmation, H4 neuroglioma cells, luminescence (AID 1988). The format is functional, cell-based.
In assay [13] the target is Genome polyprotein (dengue virus type 2, UniProt P29990). In words: Dengue-2 NS5 methyltransferase inhibitors, primary screen, biochemical, confirmation dose response (AID 588689). The format is functional.

Activity calls are given as the source filed them.

Sequence of Large T antigen (P03070 whole entry): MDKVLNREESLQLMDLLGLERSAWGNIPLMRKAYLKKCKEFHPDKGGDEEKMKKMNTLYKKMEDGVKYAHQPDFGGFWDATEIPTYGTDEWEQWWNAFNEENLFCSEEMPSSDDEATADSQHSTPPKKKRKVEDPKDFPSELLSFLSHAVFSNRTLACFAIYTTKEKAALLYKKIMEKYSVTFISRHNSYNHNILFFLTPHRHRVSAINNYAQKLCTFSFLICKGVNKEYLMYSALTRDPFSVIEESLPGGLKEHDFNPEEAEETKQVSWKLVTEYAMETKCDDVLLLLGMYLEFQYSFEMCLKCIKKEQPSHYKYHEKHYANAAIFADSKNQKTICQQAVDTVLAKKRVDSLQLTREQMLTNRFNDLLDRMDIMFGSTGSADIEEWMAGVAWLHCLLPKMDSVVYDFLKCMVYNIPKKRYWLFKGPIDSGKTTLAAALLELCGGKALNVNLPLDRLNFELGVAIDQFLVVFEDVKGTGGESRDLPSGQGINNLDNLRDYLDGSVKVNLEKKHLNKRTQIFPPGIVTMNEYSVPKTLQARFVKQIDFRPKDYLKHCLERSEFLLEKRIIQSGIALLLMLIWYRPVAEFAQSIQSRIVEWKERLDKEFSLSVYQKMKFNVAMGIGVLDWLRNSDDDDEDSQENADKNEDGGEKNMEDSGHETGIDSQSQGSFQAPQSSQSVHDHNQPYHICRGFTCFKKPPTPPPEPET
Sequence of Induced myeloid leukemia cell differentiation protein Mcl-1 (Q07820 whole entry): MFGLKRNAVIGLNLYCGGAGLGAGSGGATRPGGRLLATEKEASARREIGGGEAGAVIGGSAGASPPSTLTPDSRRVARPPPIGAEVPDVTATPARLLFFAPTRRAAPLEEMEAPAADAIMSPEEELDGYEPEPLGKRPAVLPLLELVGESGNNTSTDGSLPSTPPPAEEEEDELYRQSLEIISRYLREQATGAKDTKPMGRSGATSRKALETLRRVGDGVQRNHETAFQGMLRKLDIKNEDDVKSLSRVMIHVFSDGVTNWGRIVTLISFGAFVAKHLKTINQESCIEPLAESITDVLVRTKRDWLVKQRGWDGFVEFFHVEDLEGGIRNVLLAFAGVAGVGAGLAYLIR
Sequence of Genome polyprotein (P29990 2492-3391 limits assumed): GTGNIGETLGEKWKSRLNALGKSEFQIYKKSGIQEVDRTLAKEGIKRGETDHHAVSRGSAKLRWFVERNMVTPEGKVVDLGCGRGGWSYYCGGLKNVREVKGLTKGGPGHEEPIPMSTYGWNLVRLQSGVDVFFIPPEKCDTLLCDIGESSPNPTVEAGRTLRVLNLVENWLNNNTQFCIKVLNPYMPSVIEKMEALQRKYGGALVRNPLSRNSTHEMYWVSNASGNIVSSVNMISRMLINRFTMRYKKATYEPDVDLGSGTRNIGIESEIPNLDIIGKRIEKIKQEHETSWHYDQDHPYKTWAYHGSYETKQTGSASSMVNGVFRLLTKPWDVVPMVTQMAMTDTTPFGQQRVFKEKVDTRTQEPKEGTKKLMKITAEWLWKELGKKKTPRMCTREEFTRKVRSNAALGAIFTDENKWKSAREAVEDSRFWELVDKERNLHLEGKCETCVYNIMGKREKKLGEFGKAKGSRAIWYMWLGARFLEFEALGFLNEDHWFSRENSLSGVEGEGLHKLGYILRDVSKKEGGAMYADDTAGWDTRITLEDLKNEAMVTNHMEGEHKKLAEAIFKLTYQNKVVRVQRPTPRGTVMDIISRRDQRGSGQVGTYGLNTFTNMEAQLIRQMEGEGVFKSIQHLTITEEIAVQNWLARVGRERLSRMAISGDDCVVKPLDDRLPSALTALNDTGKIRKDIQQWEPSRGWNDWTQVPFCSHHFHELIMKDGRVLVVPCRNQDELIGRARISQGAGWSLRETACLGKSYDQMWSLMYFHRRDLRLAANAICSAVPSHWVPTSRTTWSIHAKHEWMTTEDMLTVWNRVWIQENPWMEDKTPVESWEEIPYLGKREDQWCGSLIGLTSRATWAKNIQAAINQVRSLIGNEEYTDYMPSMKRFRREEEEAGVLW

Consider `COc1cc(C(CCN2CCCCC2)c2c(OC)cc(OC)c3c(-c4ccccc4)cc(=O)oc23)cc(OC)c1OC` (configuration not stated), for which the IC50 in [1] is > 20 µM (inactive). In addition, the CC50 in assay [2] was > 25 µM (active).
For the molecule `Nc1nc2c(s1)C(=O)CC(c1ccccc1)C2` (configuration not stated), the IC50 in assay [3] is 58.8 µM (active).
Turning to `Nc1ccc(OCCCc2c(N)nc(N)nc2N)cc1`, the figures for the IC50 in assay [4] and in assay [1] were 7.73 µM (active) and > 20 µM (inactive), respectively.
As for `O=C(NCc1ccco1)C1CC(=O)N(c2ccc(O)cc2)C1` (configuration not stated), in assay [4], the IC50 is 19.8 µM (active).
Turning to `CCn1c(SCC(=O)Nc2nc3ccc(C)cc3s2)nc2c(c1=O)SC(C)C2` (configuration not stated), in assay [5], the CC50 was > 40 µM (active).
For the molecule `CCN(Cc1ccccc1)S(=O)(=O)c1ccc(C(=O)N(CCCN(C)C)c2nc3cc4c(cc3s2)OCO4)cc1`, the IC50 in assay [1] is > 20 µM (inactive).
For the molecule `CC1=C(C#N)C(=O)N(C2CCS(=O)(=O)C2)C(=O)/C1=C\c1ccc(C)o1` (configuration not stated), the results for the IC50 in assay [4] and in assay [6] were 47.9 µM (active) and 1.6 µM (active), respectively.
In the case of `Cc1ccc(NC(=O)CSc2nnc[nH]2)cc1`, the IC50 in assay [3] is 34 µM (active).
As to `O=C(Cc1nnc(O)c2ccccc12)OCc1c(Cl)cccc1Cl`, the IC50 in assay [7] was 8 µM (active).
Regarding `O=C(CSc1ccccc1)NN1C(=O)c2ccccc2C1=O`, the IC50 in assay [3] was 54.4 µM (active); in assay [8], > 47.1 µM (inactive). For the same molecule, in assay [9], the EC50 was > 53 µM (inactive).
With `Nc1nc(O)c2c(n1)N=C1C(=C(O)c3ccccc31)C2c1cccc2ccccc12` (configuration not stated), in assay [6], the IC50 is 3.73 µM (active).
As for `CCCCn1c(=O)[nH]c(=O)c2c1nc(-c1ccc(OC(F)F)c(OC)c1)n2C`, the EC50 in [10] is 24.6 µM (active); in assay [11] it was > 120 µM (not active); in assay [12], > 120 µM (not active).
Turning to `CCCCn1c(N2CCCC2)nc2c1c(=O)[nH]c(=O)n2C`, the EC50 in [10], in assay [11] and in assay [12] was > 120 µM (not active) each time.
For the molecule `Oc1cc2c(cc1O)[C@H]1c3ccccc3CN[C@@H]1CC2`, the IC50 in [4] was 80 µM (active).
`COc1ccc(/C=C/C(=O)c2ccc(O)cc2)cc1CN1CCOCC1`: the IC50 in assay [7] is 8.49 µM (active). For the same molecule, the CC50 in assay [2] was > 25 µM (active).
Consider `O=C1Cc2ccccc2Sc2ccc(O)cc21`, for which, in [1], the IC50 is > 20 µM (inactive). Further, the EC50 in assay [9] is > 53 µM (inactive).
As to `c1ccc2c(c1)CCN(c1nc(CN3CCOCC3)nc3sc4c(c13)CCCC4)C2`, the CC50 in assay [5] was > 40 µM (active).
Regarding `CN(C)C(S)=Nc1ccc(N2CCOCC2)cc1`, in [4], the IC50 is 11 µM (active).
For `CCNc1nc(SCc2ccccc2)nc(N2CCOCC2)n1`, the values for the EC50 in assay [10], in assay [11] and in [12] were 13.1 µM (active), > 120 µM (not active) and 16.8 µM (active), respectively.
Consider `COc1cc(C=C(C(C)=O)C(C)=O)ccc1O`, for which the IC50 in [4] is 8.18 µM (active).
As to `O=C(/C=C\c1ccco1)c1ccc(NC(=O)c2ccco2)cc1`, in [6], the IC50 was 2.78 µM (active).
Regarding `CC(=O)/C(C#N)=C1\NC(=O)C(Cc2ccc(C)c(C)c2)S1` (configuration not stated), the IC50 in assay [7] is 5.04 µM (active). In addition, in [2], the CC50 was > 25 µM (active).
On to `CC1=NN(c2ccccc2)C(=O)/C1=C/c1ccc(-c2ccc(C)c(C(=O)O)c2)o1`, for which the IC50 in assay [4] was 35 µM (active).
As to `Cc1c(Nc2nc3ccccc3nc2NS(=O)(=O)c2ccccc2)c(=O)n(-c2ccccc2)n1C`, in assay [3], the IC50 is 68.1 µM (active).
As for `CCCOC(=O)c1c(NC(=O)C2C3C=CC(C3)C2C(=O)O)sc2c1CCC(C)C2` (configuration not stated), the IC50 in [13] was 50.3 µM (active).
In the case of `CC(=O)c1ccc(OCCCC(=O)n2nnc3ccccc32)cc1`, the IC50 in assay [3] was 61.9 µM (active).
As to `CC(=O)NC(c1cccs1)c1cc(Cl)c2ccccc2c1O` (configuration not stated), in assay [1], the IC50 is > 20 µM (inactive).
Regarding `O=C(c1cnn(C(=O)c2ccccc2)c1)c1ccccc1O`, in [3], the IC50 was 72.6 µM (active).
As for `COc1ccc(OC)c(NC(=O)[C@H]2CC=CC[C@H]2C(=O)O)c1`, the IC50 in assay [3] is 18.5 µM (active).
Take `O=C(CSc1nnnn1C1CCCCC1)Nc1nc2c(s1)CCCC2`: the CC50 in assay [5] is > 40 µM (active).
`Cc1c(/C=N/NC(=O)c2cccs2)c2ccccc2n1Cc1ccccc1Cl`: in [7], the IC50 was > 25 µM (active). Also, the CC50 in [2] is > 25 µM (active).
With `COc1cc(C(=O)N/N=C/C2CC=CCC2)cc(OC)c1OC` (configuration not stated), the EC50 in assay [10], in assay [11] and in assay [12] was > 120 µM (not active) throughout.
For the molecule `C/C(=N\NC(=O)CSCc1ccc([N+](=O)[O-])cc1)c1cccc(Br)c1`, the IC50 in [1] was > 20 µM (inactive).
In the case of `CCc1cc(/C(Cc2ccccn2)=N\Nc2ccccc2)c(O)cc1O`, the CC50 in assay [5] is > 40 µM (active).
On the same count and under the same terms, then `CCc1ccc(/N=C\C23c4ccccc4C(c4ccccc42)C2C(=O)N(c4ccc(OC)cc4)C(=O)C23)cc1` (configuration not stated), with > 40 µM (active).

Source of the values: ChEMBL document CHEMBL1201862, “PubChem BioAssay data set” (2004).
